In patent publication US8017612B2, “Piperazine compound and use thereof as a HCV polymerase inhibitor” (priority 2006, dated 2011):

What was measured:
[1] = target: T1, HCV polymerase (NS5B) type 1b (Hepatitis C virus genotype 1b, UniProt P26663); assay: Assay of enzyme (HCV polymerase) inhibitory activity, type 1b enzyme; type: biochemical, HCV BK strain (type 1b); conditions: HCV polymerase inhibitory activity (IC50), 1b, type 1b enzyme 0.5 μg/ml, 25° C., 60 min
T1 construct: a region encoding NS5B (J Virol 1991 March, 65(3), 1105-13, 544 amino acids after deletion of 47 amino acids on the C-terminal); 6xHis (C); made in house; host or cells: Escherichia coli
Outline: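 Rxn: NS5B 1b (BK, ΔC47, His6) 0.5 μg/ml; substrate RNA 5 μg/ml; ATP/GTP/CTP 50 μM, UTP 2 μM + [5,6-3H]UTP; 20 mM Tris pH 7.5, 5 mM MgCl2, 50 mM NaCl, 1 mM EDTA/DTT. 25 °C, 60 min. Stop with TCA/pyrophosphate, filter, scintillation count; IC50 vs. untreated.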

[2] = target: T2, HCV polymerase (NS5B) type 1a (Hepatitis C virus genotype 1a, UniProt P26664); assay: Assay of enzyme (HCV polymerase) inhibitory activity, type 1a enzyme; type: biochemical, HCV type 1a (cloned from the blood of patients); conditions: HCV polymerase inhibitory activity (IC50), 1a, type 1a enzyme 1.5 μg/ml, 25° C., 60 min
T2 construct: made in house; host or cells: Escherichia coli (by the 'similar method' of the 1b enzyme)
Outline: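 NS5B Δ47 C-term His6 (type 1a, 1.5 μg/ml); substrate RNA 5 μg/ml; ATP/GTP/CTP 50 μM, UTP 2 μM + [5,6-3H]UTP; Tris pH 7.5, MgCl2 5 mM; 25° C, 60 min. TCA/pyrophosphate stop, GF/B filter, scintillation. IC50 vs no-compound control.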

Row | SMILES | IC50 [1] [nM] | IC50 [2] [nM]
1 | CC(=O)N1CCN(S(=O)(=O)c2ccc(C(C)C)cc2)[C@@H](C(=O)NCCc2ccc(C(=O)O)cc2)C1 [Example 393, 4-(2-{[(R)-4-acetyl-1-(4-isopropyl-benzenesulfonyl)-piperazine-2-carbonyl]-amino}-ethyl)-benzoic acid] | > 1000 | > 1000
2 | CCCc1ccc(S(=O)(=O)N2CCN(c3nc(COC)c(C(=O)O)s3)C[C@@H]2C(=O)NCc2ccc(C(C)C)cc2)cc1 [Example 394, 2-[(R)-3-(4-isopropyl-benzylcarbamoyl)-4-(4-propyl-benzenesulfonyl)-piperazin-1-yl]-4-methoxymethyl-thiazole-5-carboxylic acid] | < 100 | < 100
3 | CC(=O)N1CCN(S(=O)(=O)c2ccc(C(C)C)cc2)[C@@H](C(=O)NCCc2ccncc2)C1 [Example 395, (R)-4-acetyl-1-(4-isopropyl-benzenesulfonyl)-piperazine-2-carboxylic acid (2-pyridin-4-yl-ethyl)-amide] | > 1000 | > 1000
4 | CC(=O)N1CCN(S(=O)(=O)c2ccc(C(C)C)cc2)[C@@H](C(=O)NCCc2ccccn2)C1 [Example 396, (R)-4-acetyl-1-(4-isopropyl-benzenesulfonyl)-piperazine-2-carboxylic acid (2-pyridin-2-yl-ethyl)-amide] | > 1000 | > 1000
5 | CC(=O)N1CCN(S(=O)(=O)c2ccc(C(C)C)cc2)[C@@H](C(=O)NCCc2cccnc2)C1 [Example 397, (R)-4-acetyl-1-(4-isopropyl-benzenesulfonyl)-piperazine-2-carboxylic acid (2-pyridin-3-yl-ethyl)-amide] | > 1000 | > 1000
6 | Cc1nc(N2CCN(S(=O)(=O)c3ccc(OC(F)(F)F)cc3)[C@@H](C(=O)NCc3ccc(N4CCC4)cc3)C2)sc1C(=O)O [Example 398, 2-[(R)-3-(4-azetidin-1-yl-benzylcarbamoyl)-4-(4-trifluoromethoxy-benzenesulfonyl)-piperazin-1-yl]-4-methyl-thiazole-5-carboxylic acid] | < 100 | 100 to 1000
7 | CN(C)c1ccc(CNC(=O)[C@H]2CN(c3cnc(C(=O)O)cn3)CCN2S(=O)(=O)c2ccc(OC(F)(F)F)cc2)cc1 [Example 399, (R)-3-(4-dimethylamino-benzylcarbamoyl)-4-(4-trifluoromethoxy-benzenesulfonyl)-3,4,5,6-tetrahydro-2H-[1,2′]bipyrazinyl-5′-carboxylic acid] | < 100 | < 100
8 | CC(=O)N1CCN(S(=O)(=O)c2ccc(C3CC3)cc2)[C@@H](C(=O)NCc2ccc(C(C)C)cc2)C1 [Example 400, (R)-4-acetyl-1-(4-cyclopropyl-benzenesulfonyl)-piperazine-2-carboxylic acid 4-isopropyl-benzylamide] | < 100 | < 100
9 | Cc1nc(N2CCN(S(=O)(=O)c3ccc(OC(F)(F)F)cc3)[C@@H](C(=O)NCc3ccccc3)C2)sc1C(=O)O [Example 401, 2-[(R)-3-benzylcarbamoyl-4-(4-trifluoromethoxy-benzenesulfonyl)-piperazin-1-yl]-4-methyl-thiazole-5-carboxylic acid] | 100 to 1000 | > 1000
10 | CC(=O)N1CCN(S(=O)(=O)c2ccc(C(C)C)cc2)[C@@H](C(=O)NCCN2CCCCC2)C1 [Example 402, (R)-4-acetyl-1-(4-isopropyl-benzenesulfonyl)-piperazine-2-carboxylic acid (2-piperidin-1-yl-ethyl)-amide] | > 1000 | > 1000
11 | CC(=O)N1CCN(S(=O)(=O)c2ccc(C(C)C)cc2)[C@@H](C(=O)NCCN2CCOCC2)C1 [Example 403, (R)-4-acetyl-1-(4-isopropyl-benzenesulfonyl)-piperazine-2-carboxylic acid (2-morpholin-4-yl-ethyl)-amide] | > 1000 | > 1000
12 | CC(=O)N1CCN(S(=O)(=O)c2ccc(C(C)C)cc2)[C@@H](C(=O)NCCCN2CCOCC2)C1 [Example 404, (R)-4-acetyl-1-(4-isopropyl-benzenesulfonyl)-piperazine-2-carboxylic acid (3-morpholin-4-yl-propyl)-amide] | > 1000 | > 1000
13 | CC(=O)N1CCN(S(=O)(=O)c2ccc(C(C)C)cc2)[C@@H](C(=O)NCCCN2CCCC2)C1 [Example 405, (R)-4-acetyl-1-(4-isopropyl-benzenesulfonyl)-piperazine-2-carboxylic acid (3-pyrrolidin-1-yl-propyl)-amide] | > 1000 | > 1000
14 | CCCc1ccc(CNC(=O)[C@H]2CN(c3nc(C)c(C(N)=O)s3)CCN2S(=O)(=O)c2ccc(OC(F)(F)F)cc2)cc1 [Example 406, (R)-4-(5-carbamoyl-4-methyl-thiazol-2-yl)-1-(4-trifluoromethoxy-benzenesulfonyl)-piperazine-2-carboxylic acid 4-propyl-benzylamide] | < 100 | < 100
15 | CN(C)c1ccc(CNC(=O)[C@H]2CN(c3cnc(C(=O)O)cn3)CCN2S(=O)(=O)c2ccc(OC(F)(F)F)cc2)cn1 [Example 407, (R)-3-[(6-dimethylamino-pyridin-3-ylmethyl)-carbamoyl]-4-(4-trifluoromethoxy-benzenesulfonyl)-3,4,5,6-tetrahydro-2H-[1,2′]bipyrazinyl-5′-carboxylic acid] | < 100 | 100 to 1000
16 | CC(C)c1ccc(CNC(=O)[C@H]2CN(c3cnc(C(=O)O)cn3)CCN2S(=O)(=O)c2ccc(OC(F)(F)F)cc2)cn1 [Example 408, (R)-3-[(6-isopropyl-pyridin-3-ylmethyl)-carbamoyl]-4-(4-trifluoromethoxy-benzenesulfonyl)-3,4,5,6-tetrahydro-2H-[1,2′]bipyrazinyl-5′-carboxylic acid] | < 100 | < 100
17 | O=C(NCc1ccc(OC(F)(F)F)cc1)[C@H]1CN(C(=O)Cc2ccncc2)CCN1S(=O)(=O)c1ccc(OC(F)(F)F)cc1 [Example 409, (R)-4-(2-pyridin-4-yl-acetyl)-1-(4-trifluoromethoxy-benzenesulfonyl)-piperazine-2-carboxylic acid 4-trifluoromethoxy-benzylamide] | 100 to 1000 | 100 to 1000
18 | CN(C)c1ccc(CNC(=O)[C@H]2CN(C(=O)Cc3ccncc3)CCN2S(=O)(=O)c2ccc(OC(F)(F)F)cc2)cc1 [Example 410, (R)-4-(2-pyridin-4-yl-acetyl)-1-(4-trifluoromethoxy-benzenesulfonyl)-piperazine-2-carboxylic acid 4-dimethylamino-benzylamide] | 100 to 1000 | < 100
19 | CCCc1ccc(CNC(=O)[C@H]2CN(C(=O)Cc3ccncc3)CCN2S(=O)(=O)c2ccc(OC(F)(F)F)cc2)cc1 [Example 411, (R)-4-(2-pyridin-4-yl-acetyl)-1-(4-trifluoromethoxy-benzenesulfonyl)-piperazine-2-carboxylic acid 4-propyl-benzylamide] | < 100 | < 100
20 | O=C(NCc1ccc(C2CC2)cc1)[C@H]1CN(C(=O)Cc2ccncc2)CCN1S(=O)(=O)c1ccc(OC(F)(F)F)cc1 [Example 412, (R)-4-(2-pyridin-4-yl-acetyl)-1-(4-trifluoromethoxy-benzenesulfonyl)-piperazine-2-carboxylic acid 4-cyclopropyl-benzylamide] | 100 to 1000 | < 100
21 | CCCc1ccc(CNC(=O)[C@H]2CN(c3ccc(C(=O)O)cc3)CCN2S(=O)(=O)c2ccc(OC(F)(F)F)cc2)cc1 [Example 413, 4-[(R)-3-(4-propyl-benzylcarbamoyl)-4-(4-trifluoromethoxy-benzenesulfonyl)-piperazin-1-yl]-benzoic acid] | < 100 | 100 to 1000
22 | CCCc1ccc(CNC(=O)[C@H]2CN(c3nc(C)c(C(=O)O)s3)CCN2S(=O)(=O)c2ccc(CC)cc2)cc1 [Example 414, 2-[(R)-4-(4-ethyl-benzenesulfonyl)-3-(4-propyl-benzylcarbamoyl)-piperazin-1-yl]-4-methyl-thiazole-5-carboxylic acid] | < 100 | < 100
23 | CCCc1ccc(CNC(=O)[C@H]2CN(c3cnc(C(=O)O)cn3)CCN2S(=O)(=O)c2ccc(CC)cc2)cc1 [Example 415, (R)-4-(4-ethyl-benzenesulfonyl)-3-(4-propyl-benzylcarbamoyl)-3,4,5,6-tetrahydro-2H-[1,2′]bipyrazinyl-5′-carboxylic acid] | < 100 | < 100
24 | Cc1nc(N2CCN(S(=O)(=O)c3ccc(OC(F)(F)F)cc3)[C@@H](C(=O)NCc3ccc(N4CCCC4)cc3)C2)sc1C(=O)O [Example 416, 4-methyl-2-[(R)-3-(4-pyrrolidin-1-yl-benzylcarbamoyl)-4-(4-trifluoromethoxy-benzenesulfonyl)-piperazin-1-yl]-thiazole-5-carboxylic acid] | < 100 | 100 to 1000
25 | CCCc1ccc(CNC(=O)[C@H]2CN(c3ccc(C(=O)O)nn3)CCN2S(=O)(=O)c2ccc(OC(F)(F)F)cc2)cc1 [Example 417, 6-[(R)-3-(4-propyl-benzylcarbamoyl)-4-(4-trifluoromethoxy-benzenesulfonyl)-piperazin-1-yl]-pyridazine-3-carboxylic acid] | < 100 | < 100
